In patent US11136301B2, “Broad spectrum antiviral compounds and uses thereof” (The Regents Of The University Of California, priority 2015, dated 2021):
Entries after “also recorded” stand apart in the source; their conditions may differ. Read-outs that look alike come from different tables or passages of the source.

How the values were obtained:
[1] = system: APOBEC3G, Vif and cellular Hsp90 substrates (AKT, HER2); assay: Western blot of viral and cellular proteins in 293T cells co-transfected with HIV-1 (pLAI2) and HA-tagged APOBEC3G; type: cell-based; conditions: 50 μM, 24 h
Procedure: FIG. 13. […] 293T cells were co-transfected with HIV-1 (pLAI2) and HA-tagged APOBEC3G vectors and cultured for 24 h in the presence (+) or absence (−) of 50 μM RN-18. Cell lysates were collected and used for Western blot analysis with antibodies against the viral and cellular proteins indicated. Levels of cellular GAPDH were used as a loading control.
Both RN-18 and 17-AAG interact with HSP90 in Cul5 mediated E3 ligase complex. […] Cell lysates were prepared and various viral and cellular protein levels were analyzed by immunoblotting (FIG. 13). Levels of cellular GAPDH were used as loading controls.

[2] = system: wild-type HIV-1 (HIV-1LAI) in MT-4 cells (permissive); conditions: 100 μM; cited from earlier work
HSP90 = assay: ViTAP (Vif inhibitor Target Affinity Purification): streptavidin affinity purification of compound-bound proteins; type: binding; conditions: competitive binding, 0-30 μM competitor, 293FT cells
[3] = system: wild-type HIV-1 (HIV-1LAI) in MT-4 cells (permissive); assay: Antiviral activity assay: wild-type HIV-1 in permissive MT4 cells, reverse transcriptase activity in culture supernatants; type: cell-based; conditions: wild-type HIV-1, permissive MT4 cells, read-out: Antiviral activity (IC50 μM) MT4 cells
HIV-1 in CEM cells = conditions: CEM cells (non-permissive); cited from earlier work
[4] = system: wild-type HIV-1 (HIV-1LAI) in H9 cells (non-permissive); conditions: earlier finding on RN-18; cited from earlier work
[5] = system: wild-type HIV-1 (HIV-1LAI) in H9 cells (non-permissive); assay: microbe, parasite or virus in culture; type: cell-based; conditions: for viral replication (reverse transcriptase activity): 15 days

SMILES: COc1ccccc1NC(=O)c1ccccc1Sc1ccc([N+](=O)[O-])cc1 [RN-18, N-(2-methoxyphenyl)-2-((4-nitrophenyl)thio)benzamide]
- levels of cellular Hsp90 substrates (AKT and HER2) [1]: no effect on AKT and HER2 levels; also recorded: does not affect the levels of cellular Hsp90 substrates
- A3G level ([1]; HIV-1 (pLAI2) and HA-A3G): restored A3G; also recorded: specifically restores APOBEC3G
- Vif level ([1]; HIV-1 (pLAI2) and HA-A3G): enhanced degradation of Vif
- activity in MT4 cell line [2]: does not show any activity; also recorded: does not inhibit viral infectivity
- inhibition of IMA82 (25 μM) binding to FLAG-tagged HSP90 (HSP90): dose-dependently inhibited
- IC50 ([3]; Human immunodeficiency virus 1, MT4, Table 1): > 50 µM
- IC50 ([3]; Human immunodeficiency virus 1, MT4, Table 3): > 50 µM
- IC50 (HIV-1 in CEM cells): 4.5 µM
- IC50 [4]: 6 µM
- viral replication (reverse transcriptase activity) ([5]; HSP90 knockdown H9 cells): no effect
- IC50 ([5]; Human immunodeficiency virus 1, H9, read-out: Antiviral activity (IC50 μM) H9 cells, Table 1, wild-type HIV-1, non-permissive H9 cells): 6 µM
- IC50 ([5]; Human immunodeficiency virus 1, H9, read-out: Antiviral activity (IC50 μM) H9 cells, Table 3, wild-type HIV-1, non-permissive H9 cells): 6 µM
- IC50 ([5]; Human immunodeficiency virus 1, H9, read-out: IC50, anti-HIV-1 activity, non-permissive H9 cells): 6 µM
- viral replication (reverse transcriptase activity) ([5]; shNT control H9 cells): inhibited viral replication
